Paper PMC11864979, “First-in-class ultralong-target-residence-time p38α inhibitors as a mitosis-targeted therapy for colorectal cancer” (Nature Cancer, 2025)
Read-outs that look alike come from different tables or passages of the source.

Experiments:
Experiment in all cases: selectivity profiling in a panel of 340 wild-type kinases (Reaction Biology Europe)
Assay type in all cases: binding
340 wild-type kinases [1] = target: T1, 340 wild-type kinases (Homo sapiens, UniProt P45985)
T1 construct: purchased Reaction Biology Europe
T1 sequence (P45985 1-399): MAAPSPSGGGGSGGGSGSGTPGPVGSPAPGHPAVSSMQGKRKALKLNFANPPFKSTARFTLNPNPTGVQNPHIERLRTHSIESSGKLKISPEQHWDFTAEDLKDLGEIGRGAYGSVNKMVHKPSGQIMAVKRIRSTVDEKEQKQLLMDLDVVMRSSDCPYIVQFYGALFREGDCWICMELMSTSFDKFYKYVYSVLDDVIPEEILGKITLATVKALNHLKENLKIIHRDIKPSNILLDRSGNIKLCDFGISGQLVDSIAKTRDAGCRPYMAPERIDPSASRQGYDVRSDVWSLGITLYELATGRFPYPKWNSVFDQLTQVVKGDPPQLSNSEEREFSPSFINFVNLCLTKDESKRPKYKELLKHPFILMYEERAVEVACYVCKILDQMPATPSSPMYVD

340 wild-type kinases [2] = target: T2, 340 wild-type kinases (Homo sapiens, UniProt Q13464)
T2 construct: purchased Reaction Biology Europe

340 wild-type kinases [3] = target: T3, 340 wild-type kinases (Homo sapiens, UniProt Q14680)
T3 construct: purchased Reaction Biology Europe

340 wild-type kinases [4] = target: T4, 340 wild-type kinases (Homo sapiens, UniProt O00506)
T4 construct: purchased Reaction Biology Europe

340 wild-type kinases [5] = target: T5, 340 wild-type kinases (Homo sapiens, UniProt Q9NWZ3)
T5 construct: purchased Reaction Biology Europe
T5 sequence (Q9NWZ3 1-460): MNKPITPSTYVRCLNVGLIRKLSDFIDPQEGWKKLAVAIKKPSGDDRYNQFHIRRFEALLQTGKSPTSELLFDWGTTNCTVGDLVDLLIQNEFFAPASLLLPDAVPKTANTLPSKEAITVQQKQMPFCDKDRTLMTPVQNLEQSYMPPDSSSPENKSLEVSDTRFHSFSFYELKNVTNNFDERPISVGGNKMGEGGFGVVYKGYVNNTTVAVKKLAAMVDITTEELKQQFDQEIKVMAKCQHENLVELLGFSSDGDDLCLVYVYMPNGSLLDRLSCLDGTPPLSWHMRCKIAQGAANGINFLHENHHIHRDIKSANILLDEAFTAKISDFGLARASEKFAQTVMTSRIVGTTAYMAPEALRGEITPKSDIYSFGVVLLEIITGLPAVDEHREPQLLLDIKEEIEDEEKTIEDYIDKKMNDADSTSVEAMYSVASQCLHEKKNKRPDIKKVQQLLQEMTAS

340 wild-type kinases [6] = target: T6, 340 wild-type kinases (Homo sapiens, UniProt O15111)
T6 construct: purchased Reaction Biology Europe
T6 sequence (O15111 1-745): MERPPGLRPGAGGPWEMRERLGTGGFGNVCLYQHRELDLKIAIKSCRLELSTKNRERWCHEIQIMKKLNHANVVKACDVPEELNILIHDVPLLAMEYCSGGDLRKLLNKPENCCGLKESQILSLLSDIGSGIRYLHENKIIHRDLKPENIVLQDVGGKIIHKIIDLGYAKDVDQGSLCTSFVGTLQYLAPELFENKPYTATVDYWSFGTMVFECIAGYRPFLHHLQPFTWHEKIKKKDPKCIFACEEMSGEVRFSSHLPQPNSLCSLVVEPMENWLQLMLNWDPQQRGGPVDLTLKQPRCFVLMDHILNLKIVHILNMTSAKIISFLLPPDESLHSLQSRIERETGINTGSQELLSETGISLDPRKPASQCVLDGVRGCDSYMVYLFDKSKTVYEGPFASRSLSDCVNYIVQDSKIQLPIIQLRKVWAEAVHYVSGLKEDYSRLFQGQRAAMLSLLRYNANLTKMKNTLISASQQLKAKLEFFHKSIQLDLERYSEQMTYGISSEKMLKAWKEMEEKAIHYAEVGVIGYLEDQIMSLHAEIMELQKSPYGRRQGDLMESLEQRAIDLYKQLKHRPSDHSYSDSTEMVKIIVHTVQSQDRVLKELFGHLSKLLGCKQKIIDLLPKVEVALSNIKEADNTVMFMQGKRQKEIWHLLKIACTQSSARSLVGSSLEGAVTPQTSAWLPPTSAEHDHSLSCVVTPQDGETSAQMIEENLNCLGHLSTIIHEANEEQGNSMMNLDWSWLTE

340 wild-type kinases [7] = target: T7, 340 wild-type kinases (Homo sapiens, UniProt O43353)
T7 construct: purchased Reaction Biology Europe

340 wild-type kinases [8] = target: T8, 340 wild-type kinases (Homo sapiens, UniProt P30291)
T8 construct: purchased Reaction Biology Europe

340 wild-type kinases [9] = target: T9, 340 wild-type kinases (Homo sapiens, UniProt Q05397)
T9 construct: purchased Reaction Biology Europe

340 wild-type kinases [10] = target: T10, 340 wild-type kinases (Homo sapiens, UniProt Q86V86)
T10 construct: purchased Reaction Biology Europe

T7 sequence (O43353 whole entry): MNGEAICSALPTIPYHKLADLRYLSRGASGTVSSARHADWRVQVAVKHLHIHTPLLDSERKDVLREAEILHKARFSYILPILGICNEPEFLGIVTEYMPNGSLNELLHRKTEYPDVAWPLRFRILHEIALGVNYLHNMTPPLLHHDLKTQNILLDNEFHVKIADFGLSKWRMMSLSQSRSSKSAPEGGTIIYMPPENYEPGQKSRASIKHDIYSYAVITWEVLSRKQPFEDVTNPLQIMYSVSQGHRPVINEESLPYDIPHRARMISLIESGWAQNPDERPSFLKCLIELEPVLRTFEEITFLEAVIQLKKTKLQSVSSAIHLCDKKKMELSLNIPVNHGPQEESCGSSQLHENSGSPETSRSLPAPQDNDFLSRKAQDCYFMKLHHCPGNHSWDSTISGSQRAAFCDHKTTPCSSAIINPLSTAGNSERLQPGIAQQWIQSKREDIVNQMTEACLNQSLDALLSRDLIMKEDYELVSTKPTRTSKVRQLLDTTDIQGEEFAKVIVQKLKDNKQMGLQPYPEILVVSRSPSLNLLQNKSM
T9 sequence (Q05397 whole entry): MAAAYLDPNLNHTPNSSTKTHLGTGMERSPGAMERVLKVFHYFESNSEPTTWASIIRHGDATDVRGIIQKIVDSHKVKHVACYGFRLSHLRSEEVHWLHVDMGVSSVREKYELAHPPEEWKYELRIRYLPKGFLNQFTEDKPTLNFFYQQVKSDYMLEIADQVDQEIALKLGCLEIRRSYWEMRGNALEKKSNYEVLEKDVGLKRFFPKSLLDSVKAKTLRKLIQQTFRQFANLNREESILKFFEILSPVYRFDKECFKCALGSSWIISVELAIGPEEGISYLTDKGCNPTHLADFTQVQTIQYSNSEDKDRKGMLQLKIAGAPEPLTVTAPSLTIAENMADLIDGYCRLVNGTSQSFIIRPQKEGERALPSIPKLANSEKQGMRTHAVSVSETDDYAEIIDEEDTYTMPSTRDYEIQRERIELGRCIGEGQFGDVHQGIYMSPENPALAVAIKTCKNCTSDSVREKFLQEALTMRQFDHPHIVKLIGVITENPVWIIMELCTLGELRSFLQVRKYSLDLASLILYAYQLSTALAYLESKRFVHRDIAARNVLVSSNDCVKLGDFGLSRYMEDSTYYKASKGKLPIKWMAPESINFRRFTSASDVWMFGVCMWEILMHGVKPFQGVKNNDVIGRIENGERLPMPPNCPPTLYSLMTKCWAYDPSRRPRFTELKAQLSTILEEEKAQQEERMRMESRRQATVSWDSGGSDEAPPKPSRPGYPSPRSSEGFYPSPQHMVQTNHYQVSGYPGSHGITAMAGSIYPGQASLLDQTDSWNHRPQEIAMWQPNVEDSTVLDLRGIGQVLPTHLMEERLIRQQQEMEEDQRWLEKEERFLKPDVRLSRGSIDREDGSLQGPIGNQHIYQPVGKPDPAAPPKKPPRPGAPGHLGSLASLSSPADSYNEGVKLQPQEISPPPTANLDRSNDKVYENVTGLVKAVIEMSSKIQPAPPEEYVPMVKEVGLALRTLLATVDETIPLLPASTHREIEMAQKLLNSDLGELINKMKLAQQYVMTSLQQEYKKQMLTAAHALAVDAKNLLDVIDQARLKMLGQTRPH
T4 sequence (O00506 whole entry): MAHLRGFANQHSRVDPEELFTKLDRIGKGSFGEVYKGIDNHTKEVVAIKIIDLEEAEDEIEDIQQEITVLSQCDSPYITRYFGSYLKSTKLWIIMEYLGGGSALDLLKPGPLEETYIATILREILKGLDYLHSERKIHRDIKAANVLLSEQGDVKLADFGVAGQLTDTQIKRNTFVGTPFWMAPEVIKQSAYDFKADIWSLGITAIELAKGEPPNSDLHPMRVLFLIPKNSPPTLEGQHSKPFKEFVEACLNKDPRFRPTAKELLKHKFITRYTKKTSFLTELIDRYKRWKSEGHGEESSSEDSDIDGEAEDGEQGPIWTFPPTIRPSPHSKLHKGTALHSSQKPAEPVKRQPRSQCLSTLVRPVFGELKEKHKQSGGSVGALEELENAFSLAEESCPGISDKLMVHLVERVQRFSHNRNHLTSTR
T8 sequence (P30291 whole entry): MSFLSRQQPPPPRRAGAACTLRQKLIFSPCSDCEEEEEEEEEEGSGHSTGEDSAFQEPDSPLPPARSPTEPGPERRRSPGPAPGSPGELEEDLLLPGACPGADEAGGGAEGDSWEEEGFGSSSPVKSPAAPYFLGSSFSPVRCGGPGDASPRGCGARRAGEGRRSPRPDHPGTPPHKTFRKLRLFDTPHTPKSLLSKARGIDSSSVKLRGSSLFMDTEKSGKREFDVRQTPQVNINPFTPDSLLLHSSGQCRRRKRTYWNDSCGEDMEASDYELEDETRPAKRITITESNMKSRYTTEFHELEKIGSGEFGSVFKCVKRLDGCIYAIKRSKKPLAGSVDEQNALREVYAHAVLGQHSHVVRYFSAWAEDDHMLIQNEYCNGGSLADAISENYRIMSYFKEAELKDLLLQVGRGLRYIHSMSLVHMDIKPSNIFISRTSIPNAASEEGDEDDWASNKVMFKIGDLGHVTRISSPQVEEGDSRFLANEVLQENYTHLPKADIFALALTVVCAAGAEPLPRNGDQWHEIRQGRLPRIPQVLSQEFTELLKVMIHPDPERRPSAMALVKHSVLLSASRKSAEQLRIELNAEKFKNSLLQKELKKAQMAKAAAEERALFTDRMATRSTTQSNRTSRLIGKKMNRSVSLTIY
T3 sequence (Q14680 whole entry): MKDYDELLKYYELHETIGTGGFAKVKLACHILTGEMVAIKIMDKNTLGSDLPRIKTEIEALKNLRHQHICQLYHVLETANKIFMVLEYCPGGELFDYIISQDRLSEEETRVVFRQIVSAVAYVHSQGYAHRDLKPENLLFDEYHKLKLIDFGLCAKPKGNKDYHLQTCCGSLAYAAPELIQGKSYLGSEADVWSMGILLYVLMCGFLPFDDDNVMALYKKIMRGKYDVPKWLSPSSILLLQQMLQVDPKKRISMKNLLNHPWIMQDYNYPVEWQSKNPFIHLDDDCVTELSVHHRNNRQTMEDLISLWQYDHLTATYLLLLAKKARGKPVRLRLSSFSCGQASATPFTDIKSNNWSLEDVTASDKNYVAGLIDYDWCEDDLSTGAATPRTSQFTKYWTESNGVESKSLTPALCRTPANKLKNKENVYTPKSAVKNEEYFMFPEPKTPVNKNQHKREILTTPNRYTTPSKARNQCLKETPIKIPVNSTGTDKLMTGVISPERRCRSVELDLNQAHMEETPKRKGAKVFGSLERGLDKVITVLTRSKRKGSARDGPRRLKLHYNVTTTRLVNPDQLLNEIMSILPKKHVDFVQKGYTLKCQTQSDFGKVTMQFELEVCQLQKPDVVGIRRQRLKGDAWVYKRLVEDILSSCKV
T2 sequence (Q13464 whole entry): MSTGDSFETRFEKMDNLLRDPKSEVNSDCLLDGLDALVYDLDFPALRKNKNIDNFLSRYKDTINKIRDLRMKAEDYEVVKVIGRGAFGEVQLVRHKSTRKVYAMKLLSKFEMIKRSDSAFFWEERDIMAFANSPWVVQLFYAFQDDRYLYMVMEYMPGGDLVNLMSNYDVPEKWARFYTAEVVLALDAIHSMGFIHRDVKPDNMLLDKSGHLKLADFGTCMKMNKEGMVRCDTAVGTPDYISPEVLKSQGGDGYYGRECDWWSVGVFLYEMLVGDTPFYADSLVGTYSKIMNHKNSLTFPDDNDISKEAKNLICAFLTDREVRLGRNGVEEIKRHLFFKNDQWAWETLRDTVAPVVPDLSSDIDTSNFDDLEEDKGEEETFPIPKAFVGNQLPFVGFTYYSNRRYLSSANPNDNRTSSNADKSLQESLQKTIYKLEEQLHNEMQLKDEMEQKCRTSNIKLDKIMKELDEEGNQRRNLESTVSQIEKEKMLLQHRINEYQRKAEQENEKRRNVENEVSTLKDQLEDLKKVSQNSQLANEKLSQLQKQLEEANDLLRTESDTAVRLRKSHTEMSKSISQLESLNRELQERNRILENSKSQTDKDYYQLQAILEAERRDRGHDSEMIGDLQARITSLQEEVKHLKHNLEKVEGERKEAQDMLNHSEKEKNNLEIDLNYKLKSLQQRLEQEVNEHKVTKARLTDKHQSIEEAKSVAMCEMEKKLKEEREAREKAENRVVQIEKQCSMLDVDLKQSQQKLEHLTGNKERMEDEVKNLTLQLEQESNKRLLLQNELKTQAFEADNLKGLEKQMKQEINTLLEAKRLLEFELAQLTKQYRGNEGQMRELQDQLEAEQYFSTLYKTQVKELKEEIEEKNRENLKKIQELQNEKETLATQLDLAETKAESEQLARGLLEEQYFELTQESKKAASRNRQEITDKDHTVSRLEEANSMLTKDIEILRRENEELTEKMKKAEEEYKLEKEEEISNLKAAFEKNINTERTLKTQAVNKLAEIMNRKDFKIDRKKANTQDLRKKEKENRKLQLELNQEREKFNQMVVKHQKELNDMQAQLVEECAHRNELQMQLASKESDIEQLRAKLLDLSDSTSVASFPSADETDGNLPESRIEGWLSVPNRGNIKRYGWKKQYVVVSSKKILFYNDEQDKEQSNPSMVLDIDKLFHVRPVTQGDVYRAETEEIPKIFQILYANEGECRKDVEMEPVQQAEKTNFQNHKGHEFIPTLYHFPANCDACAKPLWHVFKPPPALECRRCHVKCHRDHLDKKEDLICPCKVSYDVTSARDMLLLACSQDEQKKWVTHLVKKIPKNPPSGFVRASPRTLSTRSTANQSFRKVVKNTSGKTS

In the case of CNC(=O)c1ccc2c(c1)C(=O)c1ccc(Nc3ccc(F)c(NC(=O)C4CC4)c3)cc1CC2 [Compound 2015], the remaining activity at 0.2 µM (340 wild-type kinases [1]; 0.2 µM 2015, read-out: MKK4 residual activity) was 81.9%, the remaining activity at 1 µM (340 wild-type kinases [1]; 1 µM 2015, read-out: MKK4 residual activity) was 91.3% and the remaining activity at 0.2 µM (340 wild-type kinases [1]; MKK4, 0.2 µM, read-out: residual activity) was 81.9%. The remaining activity at 1 µM (340 wild-type kinases [1]; MKK4, 1 µM, read-out: residual activity) was 91.3%, the remaining activity at 0.2 µM (340 wild-type kinases [2]; 0.2 µM 2015, read-out: ROCK1 residual activity) was 95.1% and the remaining activity at 1 µM (340 wild-type kinases [2]; 1 µM 2015, read-out: ROCK1 residual activity) was 87.2%. It also gave a remaining activity at 0.2 µM (340 wild-type kinases [2]; ROCK1, 0.2 µM, read-out: residual activity) of 95.1%, a remaining activity at 1 µM (340 wild-type kinases [2]; ROCK1, 1 µM, read-out: residual activity) of 87.2% and a remaining activity at 0.2 µM (340 wild-type kinases [3]; 0.2 µM 2015, read-out: MELK residual activity) of 94.5%. For the same compound, the remaining activity at 1 µM (340 wild-type kinases [3]; 1 µM 2015, read-out: MELK residual activity) was 91%, the remaining activity at 0.2 µM (340 wild-type kinases [3]; MELK, 0.2 µM, read-out: residual activity) was 94.5% and the remaining activity at 1 µM (340 wild-type kinases [3]; MELK, 1 µM, read-out: residual activity) was 91%. It also gave a remaining activity at 0.2 µM (340 wild-type kinases [4]; 0.2 µM 2015, read-out: STK25 residual activity) of 88.2%, a remaining activity at 1 µM (340 wild-type kinases [4]; 1 µM 2015, read-out: STK25 residual activity) of 83.6% and a remaining activity at 0.2 µM (340 wild-type kinases [4]; STK25, 0.2 µM, read-out: residual activity) of 88.2%. It also gave a remaining activity at 1 µM (340 wild-type kinases [4]; STK25, 1 µM, read-out: residual activity) of 83.6%, a remaining activity at 0.2 µM (340 wild-type kinases [5]; 0.2 µM 2015, read-out: IRAK4 residual activity) of 96.5% and a remaining activity at 1 µM (340 wild-type kinases [5]; 1 µM 2015, read-out: IRAK4 residual activity) of 93.5%. The remaining activity at 0.2 µM (340 wild-type kinases [5]; IRAK4, 0.2 µM, read-out: residual activity) was 96.5%, the remaining activity at 1 µM (340 wild-type kinases [5]; IRAK4, 1 µM, read-out: residual activity) was 93.5% and the remaining activity at 0.2 µM (340 wild-type kinases [6]; 0.2 µM 2015, read-out: IKKalpha residual activity) was 97.6%. For the same compound, the remaining activity at 1 µM (340 wild-type kinases [6]; 1 µM 2015, read-out: IKKalpha residual activity) was 92%, the remaining activity at 0.2 µM (340 wild-type kinases [6]; IKKalpha, 0.2 µM, read-out: residual activity) was 97.6% and the remaining activity at 1 µM (340 wild-type kinases [6]; IKKalpha, 1 µM, read-out: residual activity) was 92%. For the same compound, the remaining activity at 0.2 µM (340 wild-type kinases [7]; 0.2 µM 2015, read-out: RIPK2 residual activity) was 73.7%, the remaining activity at 1 µM (340 wild-type kinases [7]; 1 µM 2015, read-out: RIPK2 residual activity) was 120% and the remaining activity at 0.2 µM (340 wild-type kinases [7]; RIPK2, 0.2 µM, read-out: residual activity) was 73.7%. The remaining activity at 1 µM (340 wild-type kinases [7]; RIPK2, 1 µM, read-out: residual activity) was 120%, the remaining activity at 0.2 µM (340 wild-type kinases [8]; 0.2 µM 2015, read-out: WEE1 residual activity) was 91.7% and the remaining activity at 1 µM (340 wild-type kinases [8]; 1 µM 2015, read-out: WEE1 residual activity) was 83.3%. The remaining activity at 0.2 µM (340 wild-type kinases [8]; WEE1, 0.2 µM, read-out: residual activity) was 91.7%, the remaining activity at 1 µM (340 wild-type kinases [8]; WEE1, 1 µM, read-out: residual activity) was 83.3% and the remaining activity at 0.2 µM (340 wild-type kinases [9]; 0.2 µM 2015, read-out: FAK residual activity) was 121%. The remaining activity at 1 µM (340 wild-type kinases [9]; 1 µM 2015, read-out: FAK residual activity) was 115%, the remaining activity at 0.2 µM (340 wild-type kinases [9]; FAK, 0.2 µM, read-out: residual activity) was 121% and the remaining activity at 1 µM (340 wild-type kinases [9]; FAK, 1 µM, read-out: residual activity) was 115%. It also gave a remaining activity at 0.2 µM (340 wild-type kinases [10]; 0.2 µM 2015, read-out: PIM3 residual activity) of 95.8%, a remaining activity at 1 µM (340 wild-type kinases [10]; 1 µM 2015, read-out: PIM3 residual activity) of 92.3% and a remaining activity at 0.2 µM (340 wild-type kinases [10]; PIM3, 0.2 µM, read-out: residual activity) of 95.8%. It also gave a remaining activity at 1 µM (340 wild-type kinases [10]; PIM3, 1 µM, read-out: residual activity) of 92.2%.
